According to patent US9815794B2, “Inhibition of bacterial biofilms and microbial growth with imidazole derivatives” (North Carolina State University, priority 2011, dated 2017):
≈ marks a conversion by molar mass, not a printed value. Read-outs that look alike come from different tables or passages of the source.

What was measured:
[1] = system: difibrinated sheep's blood; assay: Red blood cell hemolysis assay; type: cell-based
Description: Once the anti-biofilm and antibacterial properties of each 2-AI derivative had both been evaluated, the hemolytic potential of compounds 15, 19 and 1 was assessed (Liu et al., Antimicrob. Agents. Ch., 2007, 51: 597-603). […] Hemolysis was measured using difibrinated sheep's blood. Hemolytic potential was quantified by determining the HD50 of compound 15, 19 and 1, where HD50 is defined as the concentration that elicits 50% hemolysis. From this assay, we determined that the HD50 of compound 15, 19 and 1 were 66 μM, 61 μM and >400 μM. This corresponds to 22 and 21 μg/mL for compounds 15 and 19.
Red Blood Cell Hemolysis Assay.
Hemolysis assays were performed on mechanically difibrinated sheep blood (Hemostat Labs: DSB100). 1.5 mL of blood was placed into a microcentrifuge tube and centrifuged at 10000 rpm for ten minutes. The supernatant was removed and then the cells were resuspended with 1 mL of phosphate-buffered saline (PBS). The suspension was centrifuged, the supernatant was removed and cells resuspended two more times. The final cell suspension was then diluted tenfold. Test compound solutions were made in PBS and then added to aliquots of the tenfold suspension dilution. PBS alone was used as a negative control and as a zero hemolysis marker whereas a 1% Triton X sample was used as a positive control and the 100% lysis marker. Samples were then placed in an incubator at 37° C. while being shaken at 200 rpm for one hour. After one hour, the samples were transferred to microcentrifuge tubes and then centrifuged at 10000 rpm for ten minutes. The resulting supernatant was diluted by a factor of 40 in distilled water. The absorbance of the supernatant was measured with a UV spectrometer at a 540 nm wavelength.

[2] = system: Listonella anguillarum; assay: Marine bacteria microdilution MIC; conditions: L. anguillarum
[3] = system: Vibrio vulnificus; assay: Marine bacteria microdilution MIC; conditions: V. vulnificus
[4] = system: E. coli; assay: Broth microdilution MIC; type: cell-based; conditions: Escherichia coli
Description: (§1) Once it was determined that this specific 4,5-disubstitution pattern imparted microbicidal activity onto the 2-AI framework, this activity was quantified by measuring the MIC of each derivative against a variety of representative pathogenic bacterial strains using the microdilution protocol (CSLI, Performance Standards for Antimicrobial Suceptibility Testing; Nineteenth Informational Supplement, Clinical and Laboratory Standards Institute, Wayne, Pa., 2009). E. coli, MDRAB, P. aeruginosa, MRSA, MSSA, S. epidermidis and VRE were used for initial evaluation. From this screen, compound 15 was determined to be the lead compound and had MIC values (μg/mL) of 2, 2, 1, 0.5, 0.25, and 1 against E. coli, MDRAB, MRSA, VRE, S. Epidermidis and MSSA.
(§2) S. aureus (ATCC #29213), S. epidermidis (ATCC #29886), MRSA (ATCC # BAA-44), MDRAB (ATCC # BAA-1605), vancomycin resistant Enterococcus faecium (VRE) (ATCC #51559) and E. coli (ATCC #35695) were obtained from the ATCC. Mechanically difibrinated sheep blood (DSB100) was obtained from Hemostat Labs. Mueller-Hinton medium was purchased from Fluka (#70192).
(§3) Broth Microdilution Method for MIC Determination.

[5] = system: MDRAB; assay: Broth microdilution MIC; type: cell-based
Description: as §1, §2, §3

[6] = system: S. epidermidis; assay: Broth microdilution MIC; type: cell-based; conditions: Staphylococcus epidermidis, read-out: MIC
Description: as §1, §2, §3

[7] = Dye dispersion assay from synthetic vesicles; conditions: 5 minutes
Description: Finally, given that active compounds are characterized by a polar head group and a lipophilic tail, it was probed whether compounds 15 and 19 were eliciting their activity via a pore forming mechanism. Compound 1 was used as a control. This was probed via a dye dispersion assay from synthetic vesicles (Liu et al., J. Am. Chem. Soc., 2001, 123, 7553-7559). Two types of vesicles were prepared, one containing 1-palmitoyl-2-oleoyl-sn-glycero-3-phosphocholine (POPC) and the other containing 1-palmitoyl-2-oleoyl-sn-glycero-3-phosphoglycerol (POPG). POPC mimics typical cell membranes encountered for mammalian red blood cells, while POPG mimics the negatively charged lipids encountered in bacterial membranes. In 5 minutes, at 25 μM, compounds 15 and 19 elicited 20% dye leakage from the POPG vesicles while they elicited 10% and 15% dye leakage from the POPC vesicles respectively. However, in 5 minutes at 500 μM, compounds 15 and 19 elicited 78% and 85% dye leakage from the POPG vesicles respectively. In 5 minutes at 25 μM, control compound 1 elicited 9% and 18% leak dye leakage from the POPC and POPG vesicles respectively, while in 5 minutes at 500 μM 1 elicited 15% and 50% leakage from the POPC and POPG vesicles. Given this differential response, and without wishing to be bound by theory, it is likely that compounds 15 and 19 are inducing microbicidal activity through a simple pore-forming mechanism.

SMILES | HD50 (concentration that elicits 50% hemolysis) [1] | HD50 (concentration that elicits 50% hemolysis) ([1]; converted from μM) | MIC ([2]; Vibrio anguillarum) | MIC ([3]; Vibrio vulnificus) | MIC [4] | MIC [5] | MIC [6] | dye leakage ([7]; POPC vesicles, 25 μM) | dye leakage ([7]; POPG vesicles, 25 μM) | dye leakage ([7]; POPG vesicles, 500 μM) | MIC [2] | MIC [3]
CCCCCCc1[nH]c(N)nc1CCCCCc1ccccc1 [Compound 19, 5-hexyl-4-(5-phenylpentyl)-1H-imidazol-2-amine] | 61 µM | 21 µg/mL | 2.2 µg/mL (≈ 7.02 µM) | 2.2 µg/mL (≈ 7.02 µM) | 2 µg/mL (≈ 6.38 µM) | 4 µg/mL (≈ 12.8 µM) | 0.5 µg/mL (≈ 1.59 µM) | 15% | 20% | 85% |  | 
CCCCCc1[nH]c(N)nc1CCCCCc1ccccc1 [Compound 15, 5-pentyl-4-(5-phenylpentyl)-1H-imidazol-2-amine] | 66 µM | 22 µg/mL | 2.1 µg/mL (≈ 7.01 µM) | 2.1 µg/mL (≈ 7.01 µM) | 2 µg/mL (≈ 6.68 µM) | 2 µg/mL (≈ 6.68 µM) | 0.25 µg/mL (≈ 0.835 µM) | 10% | 20% | 78% | 2.10 µg/mL (≈ 7.01 µM) | 2.10 µg/mL (≈ 7.01 µM)
